Results published in patent US12642769B2, “Delivery carrier into cell” (Kabusikikaisya ITO, priority 2019, dated 2026).

Experiments:
Type in all cases: cell-based
[1] = system: LabCyte EPI-MODEL normal skin epidermis model; assay: in vitro skin irritation test OECD TG-439, temperature-responsive carriers; settings: the lower the score, the higher the toxicity; Water (negative control) 100 points
Procedure: In Vitro Skin Irritation Test of Cultured Cell According to OECD Guidelines. OECD
Guidelines for the Testing of Chemicals, 439. (2015)
LabCyte EPI-MODEL was used as a normal skin epidermis model, and a skin irritation test was performed and scored. As a result (the lower the score, the higher the toxicity), the score is 3 points for 5% SLS (positive control), 100 points for Water (negative control), 125 points for A-1 of the present invention, and B-1 was 101, C-1 was 89, and D-1 was 83, and the viable cell rate was 50% or higher in all the formulations. All skin irritation was denied.

[2] = system: LabCyte EPI-MODEL normal dermal epidermis model; assay: in vitro skin irritation test OECD 439, pH-responsive carriers; settings: the lower the score, the higher the toxicity; Water (negative control) 100 points
Procedure: In vitro skin irritation tests were conducted using cultured cell according to OECD guidelines. We used OECD GUIDELINES FOR THE TESTING OF CHEMICALS, 439. (2015) for guidelines. As a result of the skin irritation test using LabCyte EPI-MODEL as a normal dermal epidermis model (the lower the score, the higher the toxicity and the lower the safety), the scores were 3 points for 5% SLS (positive control) and 100 points for Water (negative control), 134 points for A-2, 109 points for B-2,95 points for C-2, and 91 points for D-2, and the percentage of viable cell was more than 50% for all the preparations and the skin irritation was denied.

[3] = system: LabCyte EPI-MODEL normal skin epidermis model; assay: in vitro skin irritation test OECD 439, photoresponsive carriers; settings: the higher the score, the higher the safety; Water (negative control) 100 points
Procedure: In vitro skin irritation tests were performed on cultured cell according to OECD guidelines. The guidelines used were OECD GUIDELINES FOR THE TESTING OF CHEMICALS, 439. (2015). LabCyte EPI-MODEL was used as a normal skin epidermis model, and a skin irritation test was performed and scored. As a result (the higher the score, the higher the safety), the score is 5% SLS (positive control) 3 points, Water (negative control) 100 points, A-1 of the present invention is 111 points, B-1 was 98 points, C-1 was 87 points, and D-1 was 79 points. The viable cell rate of all the preparations was 50% or more, and skin irritation was denied.

Measured: skin irritation test score

CCCCCCCCCCCCOS(=O)(=O)[O-].[Na+] [SLS]
3 points: all assays above
